# Test system: Detoxification protein genes
# Test: DNA chip mRNA expression in yeast, detoxification protein genes (Table 8)
# Assay type: cell-based, Saccharomyces cerevisiae S288C
# How it was run: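 Whole-genome yeast DNA chip hybridization (65° C., >12 h) of Cy-labeled cDNA from S288C cells exposed 2 h at 25° C. to a sub-lethal toxicant dose in YPD; value is intensity relative to chemical-free control.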
substance,measurement,setting,value
manganese ethylenebis(dithiocarbamate) [(8)],The level of expressed mRNA in the presence of chemical substance/The level of expressed mRNA in the absence of chemical substance,yeast gene YBL064C,2.4
same,The level of expressed mRNA in the presence of chemical substance/The level of expressed mRNA in the absence of chemical substance,yeast gene YBR008C,2.8
same,The level of expressed mRNA in the presence of chemical substance/The level of expressed mRNA in the absence of chemical substance,yeast gene YBR145W,1.0
same,The level of expressed mRNA in the presence of chemical substance/The level of expressed mRNA in the absence of chemical substance,yeast gene YBR244W,1.0
same,The level of expressed mRNA in the presence of chemical substance/The level of expressed mRNA in the absence of chemical substance,yeast gene YBR293W,0.9
same,The level of expressed mRNA in the presence of chemical substance/The level of expressed mRNA in the absence of chemical substance,yeast gene YCL035C,1.4
same,The level of expressed mRNA in the presence of chemical substance/The level of expressed mRNA in the absence of chemical substance,yeast gene YCL069W,1.3
same,The level of expressed mRNA in the presence of chemical substance/The level of expressed mRNA in the absence of chemical substance,yeast gene YCR083W,1.5
same,The level of expressed mRNA in the presence of chemical substance/The level of expressed mRNA in the absence of chemical substance,yeast gene YDL100C,1.7
same,The level of expressed mRNA in the presence of chemical substance/The level of expressed mRNA in the absence of chemical substance,yeast gene YDL168W,1.7
same,The level of expressed mRNA in the presence of chemical substance/The level of expressed mRNA in the absence of chemical substance,yeast gene YDR256C,0.8
same,The level of expressed mRNA in the presence of chemical substance/The level of expressed mRNA in the absence of chemical substance,yeast gene YDR453C,1.3
same,The level of expressed mRNA in the presence of chemical substance/The level of expressed mRNA in the absence of chemical substance,yeast gene YDR513W,1.6
same,The level of expressed mRNA in the presence of chemical substance/The level of expressed mRNA in the absence of chemical substance,yeast gene YDR538W,1.0
same,The level of expressed mRNA in the presence of chemical substance/The level of expressed mRNA in the absence of chemical substance,yeast gene YEL027W,0.9
same,The level of expressed mRNA in the presence of chemical substance/The level of expressed mRNA in the absence of chemical substance,yeast gene YEL065W,0.9
same,The level of expressed mRNA in the presence of chemical substance/The level of expressed mRNA in the absence of chemical substance,yeast gene YER185W,1.0
same,The level of expressed mRNA in the presence of chemical substance/The level of expressed mRNA in the absence of chemical substance,yeast gene YFL050C,0.9
same,The level of expressed mRNA in the presence of chemical substance/The level of expressed mRNA in the absence of chemical substance,yeast gene YGL013C,1.4
same,The level of expressed mRNA in the presence of chemical substance/The level of expressed mRNA in the absence of chemical substance,yeast gene YGL254W,1.4
same,The level of expressed mRNA in the presence of chemical substance/The level of expressed mRNA in the absence of chemical substance,yeast gene YGR088W,0.8
same,The level of expressed mRNA in the presence of chemical substance/The level of expressed mRNA in the absence of chemical substance,yeast gene YGR138C,1.0
same,The level of expressed mRNA in the presence of chemical substance/The level of expressed mRNA in the absence of chemical substance,yeast gene YGR197C,0.8
same,The level of expressed mRNA in the presence of chemical substance/The level of expressed mRNA in the absence of chemical substance,yeast gene YGR209C,1.6
same,The level of expressed mRNA in the presence of chemical substance/The level of expressed mRNA in the absence of chemical substance,yeast gene YGR224W,0.6
same,The level of expressed mRNA in the presence of chemical substance/The level of expressed mRNA in the absence of chemical substance,yeast gene YHL040C,1.5
same,The level of expressed mRNA in the presence of chemical substance/The level of expressed mRNA in the absence of chemical substance,yeast gene YHL047C,1.5
same,The level of expressed mRNA in the presence of chemical substance/The level of expressed mRNA in the absence of chemical substance,yeast gene YHR008C,0.9
same,The level of expressed mRNA in the presence of chemical substance/The level of expressed mRNA in the absence of chemical substance,yeast gene YHR048W,1.9
same,The level of expressed mRNA in the presence of chemical substance/The level of expressed mRNA in the absence of chemical substance,yeast gene YHR053C,2.2
same,The level of expressed mRNA in the presence of chemical substance/The level of expressed mRNA in the absence of chemical substance,yeast gene YHR055C,2.1
same,The level of expressed mRNA in the presence of chemical substance/The level of expressed mRNA in the absence of chemical substance,yeast gene YIR002C,1.2
same,The level of expressed mRNA in the presence of chemical substance/The level of expressed mRNA in the absence of chemical substance,yeast gene YIR038C,1.3
same,The level of expressed mRNA in the presence of chemical substance/The level of expressed mRNA in the absence of chemical substance,yeast gene YJL101C,1.3
same,The level of expressed mRNA in the presence of chemical substance/The level of expressed mRNA in the absence of chemical substance,yeast gene YJR104C,1.5
same,The level of expressed mRNA in the presence of chemical substance/The level of expressed mRNA in the absence of chemical substance,yeast gene YKL026C,1.8
same,The level of expressed mRNA in the presence of chemical substance/The level of expressed mRNA in the absence of chemical substance,yeast gene YKL064W,0.9
same,The level of expressed mRNA in the presence of chemical substance/The level of expressed mRNA in the absence of chemical substance,yeast gene YKR066C,0.7
same,The level of expressed mRNA in the presence of chemical substance/The level of expressed mRNA in the absence of chemical substance,yeast gene YKR105C,1.3
same,The level of expressed mRNA in the presence of chemical substance/The level of expressed mRNA in the absence of chemical substance,yeast gene YKR106W,1.3
same,The level of expressed mRNA in the presence of chemical substance/The level of expressed mRNA in the absence of chemical substance,yeast gene YLL028W,0.7
same,The level of expressed mRNA in the presence of chemical substance/The level of expressed mRNA in the absence of chemical substance,yeast gene YLL057C,1.4
same,The level of expressed mRNA in the presence of chemical substance/The level of expressed mRNA in the absence of chemical substance,yeast gene YLL060C,5.8
same,The level of expressed mRNA in the presence of chemical substance/The level of expressed mRNA in the absence of chemical substance,yeast gene YLR043C,1.1
same,The level of expressed mRNA in the presence of chemical substance/The level of expressed mRNA in the absence of chemical substance,yeast gene YLR046C,0.5
same,The level of expressed mRNA in the presence of chemical substance/The level of expressed mRNA in the absence of chemical substance,yeast gene YML028W,0.8
same,The level of expressed mRNA in the presence of chemical substance/The level of expressed mRNA in the absence of chemical substance,yeast gene YML116W,2.2
same,The level of expressed mRNA in the presence of chemical substance/The level of expressed mRNA in the absence of chemical substance,yeast gene YMR015C,0.7
same,The level of expressed mRNA in the presence of chemical substance/The level of expressed mRNA in the absence of chemical substance,yeast gene YMR038C,1.9
same,The level of expressed mRNA in the presence of chemical substance/The level of expressed mRNA in the absence of chemical substance,yeast gene YNL239W,1.3
same,The level of expressed mRNA in the presence of chemical substance/The level of expressed mRNA in the absence of chemical substance,yeast gene YNL241C,0.9
same,The level of expressed mRNA in the presence of chemical substance/The level of expressed mRNA in the absence of chemical substance,yeast gene YNL259C,1.5
same,The level of expressed mRNA in the presence of chemical substance/The level of expressed mRNA in the absence of chemical substance,yeast gene YOL158C,0.7
same,The level of expressed mRNA in the presence of chemical substance/The level of expressed mRNA in the absence of chemical substance,yeast gene YOR031W,0.9
same,The level of expressed mRNA in the presence of chemical substance/The level of expressed mRNA in the absence of chemical substance,yeast gene YOR153W,0.5
same,The level of expressed mRNA in the presence of chemical substance/The level of expressed mRNA in the absence of chemical substance,yeast gene YOR247W,0.7
same,The level of expressed mRNA in the presence of chemical substance/The level of expressed mRNA in the absence of chemical substance,yeast gene YOR251C,1.1
same,The level of expressed mRNA in the presence of chemical substance/The level of expressed mRNA in the absence of chemical substance,yeast gene YOR273C,0.6
same,The level of expressed mRNA in the presence of chemical substance/The level of expressed mRNA in the absence of chemical substance,yeast gene YPL163C,0.5
same,The level of expressed mRNA in the presence of chemical substance/The level of expressed mRNA in the absence of chemical substance,yeast gene YPR200C,1.4

# Source: US8192962B2, “Processes for detecting toxic substances” (Daikin Industries, Ltd., priority 2001, dated 2012)
